# What was measured:
# [1] = test system: P388; assay: Antiproliferative activity against mouse P388 cells assessed as cell growth inhibition; format: functional, cell-based
# [2] = test system: L1210; assay: Antiproliferative activity against mouse L1210 cells assessed as cell growth inhibition; format: functional, cell-based
# [3] = Antiproliferative activity against human Molt 4/C8 cells assessed as cell growth inhibition; format: functional, cell-based; conditions: Molt4/C8
# [4] = test system: CCRF-CEM; assay: Antiproliferative activity against human CEM cells assessed as cell growth inhibition; format: functional, cell-based
# [5] = test system: GCIY; assay: Antiproliferative activity against human GCIY cells assessed as cell growth inhibition measured after 72 hrs; format: functional, cell-based
# [6] = Antiproliferative activity against human SH-10-TC cells assessed as cell growth inhibition measured after 72 hrs; format: functional, cell-based
# [7] = test system: HCT-116; assay: Antiproliferative activity against human HCT-116 cells assessed as cell growth inhibition measured after 72 hrs; format: functional, cell-based; conditions: HCT-116, 72 h
# [8] = test system: DLD-1; assay: Antiproliferative activity against human DLD-1 cells assessed as cell growth inhibition measured after 72 hrs; format: functional, cell-based; conditions: DLD-1, 72 h
# [9] = test system: A549; assay: Antiproliferative activity against human A549 cells assessed as cell growth inhibition measured after 72 hrs; format: functional, cell-based; conditions: A549, 72 h
# [10] = test system: ACHN; assay: Antiproliferative activity against human ACHN cells assessed as cell growth inhibition measured after 72 hrs; format: functional, cell-based
# [11] = test system: Huh-7; assay: Antiproliferative activity against human Huh-7 cells assessed as cell growth inhibition measured after 72 hrs; format: functional, cell-based; conditions: Huh-7, 72 h
# [12] = Antiproliferative activity against human OVK18 cells assessed as cell growth inhibition measured after 72 hrs; format: functional, cell-based; conditions: OVK18, 72 h
# [13] = test system: MCF7; assay: Antiproliferative activity against human MCF7 cells assessed as cell growth inhibition measured after 72 hrs; format: functional, cell-based; conditions: MCF7, 72 h
# [14] = test system: A-431; assay: Antiproliferative activity against human A-431 cells assessed as cell growth inhibition measured after 72 hrs; format: functional, cell-based; conditions: A-431, 72 h
# [15] = test system: HuCCT-1; assay: Antiproliferative activity against human HuCCT-1 cells assessed as cell growth inhibition measured after 72 hrs; format: functional, cell-based; conditions: HuCCT-1, 72 h
# [16] = test system: 8505C; assay: Antiproliferative activity against human 8505C cells assessed as cell growth inhibition measured after 72 hrs; format: functional, cell-based
# [17] = test system: G-361; assay: Antiproliferative activity against human G-361 cells assessed as cell growth inhibition measured after 72 hrs; format: functional, cell-based; conditions: G-361, 72 h
# [18] = test system: PC-3; assay: Antiproliferative activity against human PC-3 cells assessed as cell growth inhibition measured after 72 hrs; format: functional, cell-based; conditions: PC-3, 72 h
# [19] = Antiproliferative activity against human PK-1 cells assessed as cell growth inhibition measured after 72 hrs; format: functional, cell-based; conditions: PK-1, 72 h
# [20] = test system: MDA-MB-231; assay: Growth inhibition of human MDA-MB-231 cells measured after 72 hrs by microplate reader analysis; format: functional
# [21] = test system: RPMI-7951; assay: Growth inhibition of human RPMI-7951 cells measured after 72 hrs by microplate reader analysis; format: functional, cell-based; conditions: RPMI-7951, time 72 hrs
compound,measurement,setting,value
COc1ccc(/C=C/C(=O)N2C/C(=C\c3ccccc3)C(=O)/C(=C/c3ccccc3)C2)cc1OC,IC50,[1],0.221 µM
same,IC50,[2],5.34 µM
same,IC50,[3],1.6 µM
same,IC50,[4],1.61 µM
COc1ccc(/C=C/C(=O)N2C/C(=C\c3ccccc3)C(=O)/C(=C/c3ccccc3)C2)cc1,IC50,[1],0.221 µM
same,IC50,[2],5.34 µM
same,IC50,[3],1.6 µM
same,IC50,[4],1.61 µM
CCOC(C)COc1c(OC)cc(/C=C/C(=O)/C=C/c2cc(OC)c(OC)c(OC)c2)cc1OC (stereo not drawn),IC50,[5],1 µM
same,IC50,[6],1 µM
same,IC50,[7],1 µM
same,IC50,[8],1 µM
same,IC50,[9],1 µM
same,IC50,[10],1 µM
same,IC50,[11],1 µM
same,IC50,[12],1 µM
same,IC50,[13],1 µM
same,IC50,[14],1 µM
same,IC50,[15],1 µM
same,IC50,[16],1 µM
same,IC50,[17],1 µM
same,IC50,[18],1 µM
same,IC50,[19],1 µM
O=C1/C(=C/c2ccccc2)CN(C(=O)c2ccc(/C=C/C(=O)c3ccc([N+](=O)[O-])cc3)cc2)C/C1=C\c1ccccc1,IC50,[2],5.34 µM
same,IC50,[3],1.6 µM
same,IC50,[4],1.61 µM
O=C1/C(=C/c2ccccc2)CN(C(=O)/C=C/c2ccc(Cl)c(Cl)c2)C/C1=C\c1ccccc1,IC50,[1],0.221 µM
same,IC50,[2],5.34 µM
same,IC50,[3],1.6 µM
same,IC50,[4],1.61 µM
COc1ccc(C(=O)/C=C/c2ccc(C(=O)N3C/C(=C\c4ccccc4)C(=O)/C(=C/c4ccccc4)C3)cc2)cc1,IC50,[1],0.221 µM
same,IC50,[2],5.34 µM
same,IC50,[3],1.6 µM
same,IC50,[4],1.61 µM
COc1ccc(/C=C2\CC(C)C/C(=C\c3ccc(OC)c(OC)c3)C2=O)cc1OC (stereo not drawn),IC50,[5],> 50 µM
same,IC50,[6],> 50 µM
same,IC50,[7],> 50 µM
same,IC50,[8],> 50 µM
same,IC50,[9],> 50 µM
same,IC50,[10],> 50 µM
same,IC50,[11],> 50 µM
same,IC50,[12],> 50 µM
same,IC50,[13],> 50 µM
same,IC50,[14],> 50 µM
same,IC50,[15],> 50 µM
same,IC50,[16],> 50 µM
same,IC50,[17],> 50 µM
same,IC50,[18],> 50 µM
same,IC50,[19],> 50 µM
O=C1/C(=C/c2ccccc2)CN(C(=O)c2ccc(/C=C/C(=O)c3ccccc3)cc2)C/C1=C\c1ccccc1,IC50,[1],0.221 µM
same,IC50,[2],5.34 µM
same,IC50,[3],1.6 µM
same,IC50,[4],1.61 µM
CC(=O)Oc1ccccc1/C=C/C(=O)/C=C/c1ccccc1OC(C)=O,GI50,[20],1 µM
same,GI50,[21],2.3 µM
Cc1ccc(C(=O)/C=C/c2ccc(C(=O)N3C/C(=C\c4ccccc4)C(=O)/C(=C/c4ccccc4)C3)cc2)cc1,IC50,[1],0.221 µM
same,IC50,[2],5.34 µM
same,IC50,[3],1.6 µM
same,IC50,[4],1.61 µM
C=CC(=O)N1C/C(=C\c2ccc(Cl)cc2)C(=O)/C(=C/c2ccc(Cl)cc2)C1,IC50,[1],0.28 µM
same,IC50,[2],0.28 µM
same,IC50,[3],0.28 µM
same,IC50,[4],0.28 µM
C=CC(=O)N1C/C(=C\c2ccc(F)cc2)C(=O)/C(=C/c2ccc(F)cc2)C1,IC50,[1],0.28 µM
same,IC50,[2],0.28 µM
same,IC50,[3],0.28 µM
same,IC50,[4],0.28 µM
CCOC(C)Oc1cccc(/C=C/C(=O)/C=C/c2cc(OC)c(OC)c(OC)c2)c1 (stereo not drawn),IC50,[5],1 µM
same,IC50,[6],1 µM
same,IC50,[7],1 µM
same,IC50,[8],1 µM
same,IC50,[9],1 µM
same,IC50,[10],1 µM
same,IC50,[11],1 µM
same,IC50,[12],1 µM
same,IC50,[13],1 µM
same,IC50,[14],1 µM
same,IC50,[15],1 µM
same,IC50,[16],1 µM
same,IC50,[17],1 µM
same,IC50,[18],1 µM
same,IC50,[19],1 µM
O=C1/C(=C/c2ccccc2)CN(C(=O)c2ccc(/C=C/C(=O)c3ccc(Cl)cc3)cc2)C/C1=C\c1ccccc1,IC50,[1],0.221 µM
same,IC50,[2],5.34 µM
same,IC50,[3],1.6 µM
same,IC50,[4],1.61 µM
O=C1/C(=C/c2ccc(F)cc2)CNC/C1=C\c1ccc(F)cc1,IC50,[1],0.81 µM
same,IC50,[2],0.81 µM
same,IC50,[3],0.81 µM
same,IC50,[4],0.81 µM
C=CC(=O)N1C/C(=C\c2ccc([N+](=O)[O-])cc2)C(=O)/C(=C/c2ccc([N+](=O)[O-])cc2)C1,IC50,[1],0.28 µM
same,IC50,[2],0.28 µM
same,IC50,[3],0.28 µM
same,IC50,[4],0.28 µM
C=CC(=O)N1C/C(=C\c2ccc(Cl)c(Cl)c2)C(=O)/C(=C/c2ccc(Cl)c(Cl)c2)C1,IC50,[1],0.28 µM
same,IC50,[2],0.28 µM
same,IC50,[3],0.28 µM
same,IC50,[4],0.28 µM
O=C1/C(=C/c2ccccc2O)COC/C1=C\c1ccccc1O,GI50,[20],0.8 µM
same,GI50,[21],0.8 µM
COc1cc(/C=C/C(=O)/C=C/c2cccc(O)c2)cc(OC)c1OC,IC50,[5],1 µM
same,IC50,[6],1 µM
same,IC50,[7],1 µM
same,IC50,[8],1 µM
same,IC50,[9],1 µM
same,IC50,[10],1 µM
same,IC50,[11],1 µM
same,IC50,[12],1 µM
same,IC50,[13],1 µM
same,IC50,[14],1 µM
same,IC50,[15],1 µM
same,IC50,[16],1 µM
same,IC50,[17],1 µM
same,IC50,[18],1 µM
same,IC50,[19],1 µM
O=C1/C(=C/c2ccc(Cl)c(Cl)c2)CNC/C1=C\c1ccc(Cl)c(Cl)c1,IC50,[1],0.81 µM
same,IC50,[2],0.81 µM
same,IC50,[3],0.81 µM
same,IC50,[4],0.81 µM
O=C1/C(=C/c2ccccc2)CN(C(=O)c2ccc(/C=C/C(=O)c3ccc(Cl)c(Cl)c3)cc2)C/C1=C\c1ccccc1,IC50,[1],0.221 µM
same,IC50,[2],5.34 µM
same,IC50,[3],1.6 µM
same,IC50,[4],1.61 µM

# — ChEMBL document CHEMBL5244235, “Diarylpentanoids with antitumor activity: A critical review of structure-activity relationship studies” (Eur J Med Chem, 2020)
